Experimental data published in patent publication US10441663B2, “Methods for treating cancer” (Bicycle Therapeutics Limited, priority 2016, dated 2019).
*1 amine or outer side, *2 acyl side, *3 side chain or, on linkers, in order; H or OH if unused. Where a SMILES comes first, the peptide text is derived from it. Bridges are numbered along the chain shown (N, C = ends). [ ]: non-standard residue; d: D form. The star is where a group is joined. X1 = COc1cc2cc(c1Cl)N(C)C(=O)C[C@H](OC(=O)[C@H](C)N(C)C(=O)CCSSC(C)CCC(=O)*)[C@]1(C)O[C@H]1[C@H](C)[C@@H]1C[C@@](O)(NC(=O)O1)[C@H](OC)/C=C/C=C(\C)C2; 1Nal = N[C@@H](Cc1cccc2ccccc12)C(=O)O; TBMB = c1c(C[*:1])cc(C[*:3])cc1C[*:2]; Tle = CC(C)(C)[C@H](N)C(=O)O; βAla = NCCC(=O)O; Sar = CNCC(=O)O

Tested on: HT1080 xenograft
Experiment: In vivo efficacy of BT1718 in HT1080 xenograft
Set-up: species or system Mus Musculus; key to Best response at 10 mg/kg: CR complete response; PR partial response
Procedure: The objective of this study was to evaluate the in vivo anti-tumor efficacy of BT1718in treatment of HT1080, NCI-H292, NCI-H1975, MDA-MB-231, HCC1806, RPMI2650, HCT-15, HT-29 and SNU-16 xenograft in BALB/c nude mice.
The HT1080, NCI-H292, NCI-H1975, MDA-MB-231, HCC1806, RPMI2650, HCT-15, HT-29 and SNU-16 tumor cells were maintained in vitro as a monolayer culture in medium supplemented with 10% heat inactivated fetal bovine serum at 37° C. in an […]. The tumor cells will be routinely subcultured twice weekly by trypsin-EDTA treatment. The cells growing in an exponential growth phase will be harvested and counted for tumor inoculation.
Mouse was inoculated subcutaneously at the right flank with tumor cells for tumor development. The animals were randomized and treatment was started when the average tumor reaches certain volume for the efficacy study, the inoculating cell amounts and starting tumor size were shown as below in Table 9. The test article administration and the animal numbers in each group were shown in the experimental design in Table 10.
All the procedures related to animal handling, care and the treatment in the study were performed according to the guidelines of the Association for Assessment and Accreditation of Laboratory Animal Care (AAALAC). At the time of routine monitoring, the animals were daily checked for any effects of tumor growth and treatments on normal behavior such as mobility, food and water consumption (by looking only), body weight gain/loss (body weights were measured every day), eye/hair matting and any other abnormal effect as stated in the protocol. Death and observed clinical signs were recorded on the basis of the numbers of animals within each subset.
The major endpoint was to see if the tumor growth could be delayed or mice could be cured. Tumor size was measured three times weekly in two dimensions using a caliper, and the volume was expressed in mm^3 using the formula: V=0.5 a×b^2 where a and b are the long and short diameters of the tumor, respectively. The tumor size was then used for calculations of T/C value. The T/C value (in percent) is an indication of antitumor effectiveness; T and C are the mean volumes of the treated and control groups, respectively, on a given day.
TGI was calculated for each group using the formula: TGI (%)=[1−(Ti−T0)/(Vi−V0)]×100; Ti is the average tumor volume of a treatment group on a given day, T0 is the average tumor volume of the treatment group on the day of treatment start, Vi is the average tumor volume of the vehicle control group on the same day with Ti, and V0 is the average tumor volume of the vehicle group on the day of treatment start.
Summary statistics, including mean and the standard error of the mean (SEM), are provided for the tumor volume of each group at each time point.
Statistical analysis of difference in tumor volume among the groups was conducted on the data obtained at the best therapeutic time point after the final dose.
A one-way ANOVA was performed to compare tumor volume among groups, and when a significant F-statistics (a ratio of treatment variance to the error variance) was obtained, comparisons between groups were carried out with Games-Howell test. All data were analyzed using Prism. P<0.05 was considered to be statistically significant.

## COc1cc2cc(c1Cl)N(C)C(=O)C[C@H](OC(=O)[C@H](C)N(C)C(=O)CCSSC(C)CCC(=O)NCCC(=O)N(C)CC(=O)N(C)CC(=O)N(C)CC(=O)N(C)CC(=O)N(C)CC(=O)N(C)CC(=O)N(C)CC(=O)N(C)CC(=O)N(C)CC(=O)N(C)CC(=O)N[C@@H](C)C(=O)N[C@H]1CSCc3cc4cc(c3)CSC[C@H](NC(=O)[C@@H](C)NC(=O)[C@H](Cc3cccc5ccccc35)NC(=O)[C@H](CCC(=O)O)NC(=O)[C@H](CC(N)=O)NC(=O)[C@@H](C)NC1=O)C(=O)N[C@@H](CCC(=O)O)C(=O)N[C@@H](CC(=O)O)C(=O)N[C@@H](Cc1ccccc1)C(=O)N[C@@H](Cc1ccc(O)cc1)C(=O)N[C@@H](CC(=O)O)C(=O)N[C@@H](C(C)(C)C)C(=O)N[C@H](C(N)=O)CSC4)[C@]1(C)O[C@H]1[C@H](C)[C@@H]1C[C@@](O)(NC(=O)O1)[C@H](OC)/C=C/C=C(\C)C2 (stereo partly drawn) [BT1718] ({X1-βAla}-[Sar][Sar][Sar][Sar][Sar][Sar][Sar][Sar][Sar][Sar]AC[dA]NE[1Nal][dA]CEDFYD[Tle]C-NH2; linker 12-18-25 via TBMB (inferred))
3 mg/kg biw
  animals with transient response on re-dosing: 1/3
3 mg/kg biw re-dosing
  animals that ultimately re-grew despite dosing: 3/3
10 mg/kg biw, suspension period of 2 months
  re-growth during dosing suspension: did not re-grow
10 mg/kg qw, re-growth in weeks 3-4 of re-dosing
  response on re-dosing of the relapsed animal: transient response
1 mpk biw, day 0
  Body Weight: 22.7 ± 0.5 g
  Tumor Volume: 177 ± 6 mm^3
1 mpk biw, day 2
  Body Weight: 22.2 ± 0.4 g
  Tumor Volume: 265 ± 33 mm^3
1 mpk biw, day 4
  Body Weight: 22.3 ± 0.2 g
  Tumor Volume: 669 ± 107 mm^3
1 mpk biw, day 7
  Body Weight: 22.2 ± 0.2 g
  Tumor Volume: 1009 ± 156 mm^3
1 mpk biw, day 9
  Body Weight: 21.5 ± 0.2 g
  Tumor Volume: 1318 ± 146 mm^3
1 mpk biw, day 11
  Body Weight: 20.1 ± 0.1 g
  Tumor Volume: 1526 ± 160 mm^3
1 mpk biw, day 14
  Body Weight: 19.4 ± 0.0 g
  Tumor Volume: 1650 ± 218 mm^3
1 mpk qw, day 0
  Body Weight: 22.5 ± 0.6 g
  Tumor Volume: 178 ± 4 mm^3
1 mpk qw, day 2
  Body Weight: 22.2 ± 0.5 g
  Tumor Volume: 257 ± 26 mm^3
1 mpk qw, day 4
  Body Weight: 22.6 ± 0.5 g
  Tumor Volume: 627 ± 112 mm^3
1 mpk qw, day 7
  Body Weight: 22.3 ± 0.3 g
  Tumor Volume: 934 ± 176 mm^3
1 mpk qw, day 9
  Body Weight: 22.2 ± 0.3 g
  Tumor Volume: 1253 ± 182 mm^3
1 mpk qw, day 11
  Body Weight: 20.5 ± 0.3 g
  Tumor Volume: 1593 ± 251 mm^3
1 mpk qw, day 14
  Body Weight: 19.6 ± 0.2 g
  Tumor Volume: 1814 ± 320 mm^3
3 mpk biw, day 0
  Body Weight: 23.1 ± 0.6 g
  Tumor Volume: 178 ± 15 mm^3
3 mpk biw, day 2
  Body Weight: 22.8 ± 0.9 g
  Tumor Volume: 196 ± 16 mm^3
3 mpk biw, day 4
  Body Weight: 22.5 ± 0.7 g
  Tumor Volume: 100 ± 10 mm^3
3 mpk biw, day 7
  Body Weight: 23.4 ± 0.8 g
  Tumor Volume: 39 ± 8 mm^3
3 mpk biw, day 9
  Body Weight: 24 ± 1.1 g
  Tumor Volume: 18 ± 10 mm^3
3 mpk biw, day 11
  Body Weight: 24.5 ± 0.9 g
  Tumor Volume: 8 ± 8 mm^3
3 mpk biw, day 14
  Body Weight: 24.7 ± 0.9 g
  Tumor Volume: 3 ± 3 mm^3
3 mpk qw, day 0
  Body Weight: 22.6 ± 0.3 g
  Tumor Volume: 179 ± 18 mm^3
3 mpk qw, day 2
  Body Weight: 21.4 ± 0.2 g
  Tumor Volume: 191 ± 17 mm^3
3 mpk qw, day 4
  Body Weight: 21.8 ± 0.8 g
  Tumor Volume: 183 ± 90 mm^3
3 mpk qw, day 7
  Body Weight: 22.0 ± 1.1 g
  Tumor Volume: 218 ± 149 mm^3
3 mpk qw, day 9
  Body Weight: 21.3 ± 0.7 g
  Tumor Volume: 266 ± 142 mm^3
3 mpk qw, day 11
  Body Weight: 21.4 ± 0.5 g
  Tumor Volume: 254 ± 125 mm^3
3 mpk qw, day 14
  Body Weight: 21.0 ± 0.6 g
  Tumor Volume: 306 ± 119 mm^3
10 mpk biw, day 0
  Body Weight: 22.5 ± 1.0 g
  Tumor Volume: 180 ± 21 mm^3
10 mpk biw, day 2
  Body Weight: 21.8 ± 1.2 g
  Tumor Volume: 182 ± 41 mm^3
10 mpk biw, day 4
  Body Weight: 21.8 ± 1.1 g
  Tumor Volume: 58 ± 14 mm^3
10 mpk biw, day 7
  Body Weight: 22.7 ± 0.9 g
  Tumor Volume: 32 ± 7 mm^3
10 mpk biw, day 9
  Body Weight: 22.1 ± 0.9 g
  Tumor Volume: 27 ± 14 mm^3
10 mpk biw, day 11
  Body Weight: 22 ± 1.1 g
  Tumor Volume: 26 ± 13 mm^3
10 mpk biw, day 14
  Body Weight: 22.6 ± 1.0 g
  Tumor Volume: 20 ± 11 mm^3
10 mpk qw, day 0
  Body Weight: 22.6 ± 1.2 g
  Tumor Volume: 179 ± 14 mm^3
10 mpk qw, day 2
  Body Weight: 21.1 ± 1.2 g
  Tumor Volume: 146 ± 19 mm^3
10 mpk qw, day 4
  Body Weight: 22.1 ± 1.2 g
  Tumor Volume: 35 ± 4 mm^3
10 mpk qw, day 7
  Body Weight: 23.2 ± 1.0 g
  Tumor Volume: 25 ± 3 mm^3
10 mpk qw, day 9
  Body Weight: 22.7 ± 1.1 g
  Tumor Volume: 15 ± 8 mm^3
10 mpk qw, day 11
  Body Weight: 23.8 ± 1.3 g
  Tumor Volume: 5 ± 5 mm^3
10 mpk qw, day 14
  Body Weight: 24.8 ± 1.5 g
  Tumor Volume: 5 ± 5 mm^3
HT1080, 10 mg/kg
  Best response at 10 mg/kg: CR
HT1080, 1 mpk, biw, day 14
  TGI: 26.5%
  Tumor Volume: 1650 ± 218 mm^3
HT1080, 1 mpk, qw, day 14
  TGI: 18.4%
  Tumor Volume: 1814 ± 320 mm^3
HT1080, 3 mpk, biw, day 14
  TGI: 108.7%
  Tumor Volume: 3 ± 3 mm^3
HT1080, 3 mpk, qw, day 14
  TGI: 93.7%
  Tumor Volume: 306 ± 119 mm^3
HT1080, 10 mpk, biw, day 14
  TGI: 108.0%
  Tumor Volume: 20 ± 11 mm^3
HT1080, 10 mpk, qw, day 14
  TGI: 108.7%
  Tumor Volume: 5 ± 5 mm^3
HT1080, dose leading to tumor-stasis
  Minimally Effective Dose IV BIW: <3 mg/kg
After 2 weeks, 3 mg/kg biw, 10 mg/kg qw and 10 mg/kg biw
  tumor response: completely regressed
Previously 3 mg/kg biw
  animals with re-growth to 150 mm3 following cessation of dosing: 3/3
Previously 10 mg/kg qw
  animals with re-growth to 150 mm3 following cessation of dosing: 1/3
